Results on 22 compounds are retold here after article PMC7168933, “Design, Synthesis and Biochemical Evaluation of Novel Ethanoanthracenes and Related Compounds to Target Burkitt’s Lymphoma” (Pharmaceuticals, 2020).

The test system of data set [1] is DG-75 Burkitt lymphoma cell line (EBV−, chemoresistant). The data set can be described thus: cells. The following applies: Homo sapiens, DG-75, 48 h; for viability at 1 µM: read-out: DG-75 Cell Viability % 1 μM, 1 μM, 48 h; for viability at 10 µM: read-out: DG-75 Cell Viability % 10 μM, 10 μM, 48 h.
Data set [2] deals with MUTU-1 Burkitt lymphoma cell line (EBV+). The data set can be described thus: cells. The following applies: Mutu-1, 24 h; for viability at 1 µM: read-out: MUTU-1 Cell Viability % 1 μM, 1 μM, 24 h; for viability at 10 µM: read-out: MUTU-1 Cell Viability % 10 μM, 10 μM, 24 h; for IC50: read-out: IC50 MUTU-I 24 h.
Data set [3] has the same test system. The following applies: 1 and 10 μM, 24 h.

Some results are limits rather than exact numbers.

For `COc1cc(CN2C(=O)C3C4c5ccccc5C(/C=C(\C)[N+](=O)[O-])(c5ccccc54)C3C2=O)cc(OC)c1OC` (stereo not shown) [Compound 17l, (E)-9-(2-Nitroprop-1-en-1-yl)-13-(3,4,5-trimethoxybenzyl)-9,10-dihydro-9,10-[3,4]epipyrroloanthracene-12,14-dione], the melting point (in general, the temperature, or range, at which the solid turns liquid) lay in the range of 227 to 229 °C. Also, in data set [1], the viability (as a rule, a read-out of living cells in per cent, often relative to untreated cells) at 1 µM is 81.9% and the viability at 10 µM was 82.1%. In addition, in data set [2], the viability at 1 µM is 66.8% and the viability at 10 µM is 77.3%.
The corresponding values for `CC/C(=C\C12c3ccccc3C(c3ccccc31)C1C(=O)N(Cc3cc(OC)c(OC)c(OC)c3)C(=O)C12)[N+](=O)[O-]` (stereo not shown) [Compound 17m, (E)-9-(2-Nitrobut-1-en-1-yl)-13-(3,4,5-trimethoxybenzyl)-9,10-dihydro-9,10-[3,4]epipyrroloanthracene-12,14-dione] are 224 to 229 °C, 82.2%, 77.8%, 82.2% and 66.8%.
`O=C1C2C3c4ccccc4C(/C=C/[N+](=O)[O-])(c4ccccc43)C2C(=O)N1CCc1ccccc1` (stereo not shown) [Compound 17n] yielded a melting point of 152 to 156 °C. For the same compound, in data set [1], the viability at 1 µM was 19.9% and the viability at 10 µM amounted to 0.07%. Moreover, in data set [2], the half-inhibitory concentration (IC50) (as a rule, the concentration needed to halve the response being measured) came out at 260 nM; the viability at 1 µM stood at 2.8%; the viability at 10 µM amounted to 2%.
Take `O=c1n(-c2ccccc2)c(=O)n2n1C1c3ccccc3C2(/C=C/[N+](=O)[O-])c2ccccc21` [Compound 18, (E)-9-(2-Nitrovinyl)-14-phenyl-9,10-dihydro-9,10-[1,2]epitriazoloanthracene-13,15-dione]: the melting point was 168 to 169 °C. In data set [1], the viability at 1 µM is 87.3% and the viability at 10 µM was found to be 13.2%. In data set [2], the viability at 1 µM was 75% and the viability at 10 µM was 13.2%.
As for `CC(=O)OC1(C#N)CC2c3ccccc3C1(/C=C/[N+](=O)[O-])c1ccccc12` (stereo not shown) [Compound 19d, (E)-11-Cyano-10-(2-nitrovinyl)-9,10-dihydro-9,10-ethanoanthracen-11-yl acetate], the melting point lay within 168 to 170 °C. In data set [1], the viability at 1 µM was determined as 99.4% and the viability at 10 µM stood at 1%. In data set [2], the viability at 1 µM is 48.9% and the viability at 10 µM came out at 0.69%.
The corresponding values for `COC(=O)C1C2c3ccccc3C(/C=C/[N+](=O)[O-])(c3ccccc32)C1C(=O)OC` (stereo not shown) [Compound 19e, Dimethyl (E)-9-(2-nitrovinyl)-9,10-dihydro-9,10-ethanoanthracene-11,12-dicarboxylate] are 141 to 143 °C, 102%, 10.3%, 84.7% and 10.7%.
The compound `CCOC(=O)C1C2c3ccccc3C(/C=C/[N+](=O)[O-])(c3ccccc32)C1C(=O)OCC` (stereo not shown) [Compound 19f, Diethyl (E)-9-(2-nitrovinyl)-9,10-dihydro-9,10-ethanoanthracene-11,12-dicarboxylate] came in with a melting point of 151 to 152 °C. Moreover, in data set [1], the viability at 1 µM was determined as 13.9% and the viability at 10 µM worked out at 13.8%. For the same compound, in data set [2], the concentration for half-maximal inhibition (IC50) was 550 nM, the viability at 1 µM stood at 13.6% and the viability at 10 µM came to 13.8%.
For the compound `O=[N+]([O-])/C=C/C12c3ccccc3C(c3ccccc31)c1ccccc12` [Compound 20a, (E)-9-(2-nitrovinyl)-9,10-dihydro-9,10-[1,2]benzenoanthracene], in data set [3], the “cell viability in MUTU-I cell line (1 and 10 μM together or concentration not stated)” value was below 6%. Further, the viability at 1 µM stood at 90.2% in data set [1] and 6% in data set [2]. Also, the viability at 10 µM came out at 0.091% in data set [1] and 1.3% in data set [2].
Take `CC(=CC12c3ccccc3C(c3ccccc31)c1ccccc12)[N+](=O)[O-]` [Compound 20b, (E)-9-(2-Nitroprop-1-en-1-yl)-9,10-dihydro-9,10-[1,2]benzenoanthracene]: the melting point was in the range of 226 to 228 °C. In data set [1], the viability at 1 µM was 86.4% and the viability at 10 µM was 100%. Also, in data set [2], the viability at 1 µM was 95.2% and the viability at 10 µM came out at 102%.
The corresponding values for `CCC(=CC12c3ccccc3C(c3ccccc31)c1ccccc12)[N+](=O)[O-]` [Compound 20c, (E)-9-(2-Nitrobut-1-en-1-yl)-9,10-dihydro-9,10-[1,2]benzenoanthracene] are 210 to 211 °C, 95.1%, 84.8%, 106% and 102%.
In the same order, the values of `O=[N+]([O-])CCC12c3ccccc3C(c3ccccc31)c1ccccc12` [Compound 20e, 9-(2-Nitroethyl)-9,10-dihydro-9,10-[1,2]benzenoanthracene] are 185 to 187 °C, 97.6%, 97.2%, 98.9% and 111%.
Regarding `O=C1NC(=O)C2C3c4ccccc4C(c4ccccc43)C12` (stereo not shown) [Compound 21b], the melting point lay in the range of 299 to 300 °C. In data set [1], the viability at 1 µM stood at 82% and the viability at 10 µM turned out to be 74.5%. In addition, in data set [2], the viability at 1 µM was 104% and the viability at 10 µM is 92.8%.
Turning to `O=C1C2C3c4ccccc4C(c4ccccc43)C2C(=O)N1c1ccccc1` (stereo not shown) [Compound 21c], the melting point lay within 227 to 229 °C. Further, in data set [1], the viability at 1 µM came out at 85.7% and the viability at 10 µM was found to be 71.3%. In data set [2], the viability at 1 µM amounted to 93% and the viability at 10 µM was found to be 91.2%.
In the same order, the values of `O=C1NC(=O)C2C1C1c3ccccc3C2(O)c2ccccc21` (stereo not shown) [Compound 21k, 9-Hydroxy-9,10-dihydro-9,10-[3,4]epipyrroloanthracene-12,14-dione] are 253 to 255 °C, 65.9%, 80.9%, 104% and 100%.
Regarding `N#C/C=C/C12c3ccccc3C(c3ccccc31)C1C(=O)OC(=O)C12` (stereo not shown) [Compound 23a, (E)-3-(12,14-Dioxo-9,10-[3,4]furanoanthracen-9(10H)-yl)acrylonitrile], the melting point is 215 to 219 °C. Moreover, in data set [1], the viability at 1 µM worked out at 89% and the viability at 10 µM stood at 75.8%. Moreover, in data set [2], the viability at 1 µM was 82.7% and the viability at 10 µM amounted to 82.6%.
In the same order, the values of `N#C/C=C/C12c3ccccc3C(c3ccccc31)C1C(=O)N(c3ccccc3)C(=O)C12` (stereo not shown) [Compound 23c, (E)-3-(12,14-Dioxo-13-phenyl-9,10-[3,4]epipyrroloanthracen-9(10H)-yl)acrylonitrile] are 274 to 281 °C, 94.4%, 89.1%, 90.7% and 74.1%.
In the same order, the values of `N#CC(C#N)=CC12c3ccccc3C(c3ccccc31)C1C(=O)OC(=O)C12` (stereo not shown) [Compound 23d, 2-((12,14-Dioxo-9,10-[3,4]furanoanthracen-9(10H)-yl)methylene)malononitrile] are 196 to 198 °C, 103%, 95.7%, 99.8% and 82.7%.
On to `N#CC(C#N)=CC12c3ccccc3C(c3ccccc31)C1C(=O)NC(=O)C12` (stereo not shown) [Compound 23e, 2-((12,14-Dioxo-9,10-[3,4]epipyrroloanthracen-9(10H)-yl)methylene)malononitrile], for which the melting point lay within 281 to 284 °C. In addition, in data set [1], the viability at 1 µM worked out at 85.7% and the viability at 10 µM stood at 98.7%. For the same compound, in data set [2], the viability at 1 µM came to 82.9% and the viability at 10 µM was 83.6%.
The corresponding values for `N#CC(C#N)=CC12c3ccccc3C(c3ccccc31)C1C(=O)N(c3ccccc3)C(=O)C12` (stereo not shown) [Compound 23f, 2-((12,14-Dioxo-13-phenyl-9,10-[3,4]epipyrroloanthracen-9(10H)-yl)methylene)malononitrile] are 255 to 258 °C, 82%, 81.6%, 78.9% and 71.8%.
`N/N=C/C12c3ccccc3C(c3ccccc31)C1C(=O)NC(=O)C12` (stereo not shown) [Compound 23g, (E)-9-(Hydrazonomethyl)-9,10-dihydro-9,10-[3,4]epipyrroloanthracene-12,14-dione] came in with a melting point of 245 to 247 °C. Besides, in data set [1], the viability at 1 µM was 78.1% and the viability at 10 µM turned out to be 55%. Further, in data set [2], the viability at 1 µM came out at 95.2% and the viability at 10 µM was found to be 101%.
`O=C1NC(=O)C2C1C1c3ccccc3C2(/C=N/O)c2ccccc21` (stereo not shown) [Compound 23j, (E)-12,14-Dioxo-9,10-[3,4]epipyrroloanthracene-9(10H)-carbaldehyde oxime] returned a melting point of 272 to 273 °C. Also, in data set [1], the viability at 1 µM amounted to 69.1% and the viability at 10 µM was found to be 63.9%. Besides, in data set [2], the viability at 1 µM was determined as 92.8% and the viability at 10 µM turned out to be 87.6%.
In the same order, the values of `O=C1C2C3c4ccccc4C(/C=N/O)(c4ccccc43)C2C(=O)N1c1ccccc1` (stereo not shown) [Compound 23k, (E)-12,14-Dioxo-13-phenyl-9,10-[3,4]epipyrroloanthracene-9(10H)-carbaldehyde oxime] are 238 to 242 °C, 81.7%, 74.1%, 96.9% and 83.9%.
